This note sets out measurements from ChEMBL document CHEMBL3751675, “Characterization of isobutylhydroxyamides with NGF-potentiating activity from Zanthoxylum bungeanum” (Bioorg Med Chem Lett, 2016).

In general, inhibition refers to the change of the read-out against control, counted positive when it falls. For orientation: EC50 means the concentration giving half of the maximal effect.

Each structure is given as a SMILES string. Activity calls are given as the source filed them. The calls are words filed in the database; no cut-off is given here.

One data set deals with PC-12. In words: Stimulation of NGF-induced neurite outgrowth in rat PC12 cells at 20 uM incubated for 48 hrs by phase contrast microscopy. It counts as functional, cell-based.
The test system of the next data set is HCT-116. In words: Cytotoxicity against human HCT116 cells at 50 uM. The data set is classed as functional, cell-based.
Data set [1] can be described thus: Antioxidant activity assessed as DPPH radical scavenging activity at 50 uM. It counts as physicochemical.
The nature of data set [2]: Cytotoxicity against rat PC12 cells assessed as reduction in cell viability up to 50 uM by MTT assay. The data set is classed as cell-based. The following applies: pc-12. A general note: Tetrazolium assays rely on reduction of a dye to a coloured formazan, in cell work by metabolically active cells.
The nature of data set [3]: Cytotoxicity against NF1 and p53 deficient mouse glioma cells assessed as growth inhibition at 2 ug/ml after 2 days. It counts as functional. As to conditions: Glioma cell, 48 h.
Data set [4] in a line: Cytotoxicity against rat PC12 cells assessed as induction of morphological changes at 20 uM after 48 hrs by phase contrast microscopy in absence of NGF. It counts as cell-based. The following applies: pc-12, 48 h.
The target in data set [5] is T1, Peroxisome proliferator-activated receptor (Homo sapiens, UniProt P37231+Q07869+Q03181).
T1 sequence (P37231 whole entry): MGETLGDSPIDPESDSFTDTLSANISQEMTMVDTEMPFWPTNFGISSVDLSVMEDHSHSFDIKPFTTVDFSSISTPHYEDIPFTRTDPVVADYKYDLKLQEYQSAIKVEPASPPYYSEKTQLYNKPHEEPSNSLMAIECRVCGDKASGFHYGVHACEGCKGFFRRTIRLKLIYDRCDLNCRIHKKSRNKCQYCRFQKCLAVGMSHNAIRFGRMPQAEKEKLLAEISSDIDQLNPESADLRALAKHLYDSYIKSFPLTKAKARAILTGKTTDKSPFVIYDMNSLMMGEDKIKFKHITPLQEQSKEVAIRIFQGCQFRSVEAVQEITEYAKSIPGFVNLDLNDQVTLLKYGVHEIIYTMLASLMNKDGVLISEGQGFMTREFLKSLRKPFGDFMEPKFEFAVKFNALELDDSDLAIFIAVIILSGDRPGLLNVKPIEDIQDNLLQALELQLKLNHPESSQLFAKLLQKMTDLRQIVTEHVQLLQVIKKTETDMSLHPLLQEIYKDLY
T1 sequence (Q07869 whole entry): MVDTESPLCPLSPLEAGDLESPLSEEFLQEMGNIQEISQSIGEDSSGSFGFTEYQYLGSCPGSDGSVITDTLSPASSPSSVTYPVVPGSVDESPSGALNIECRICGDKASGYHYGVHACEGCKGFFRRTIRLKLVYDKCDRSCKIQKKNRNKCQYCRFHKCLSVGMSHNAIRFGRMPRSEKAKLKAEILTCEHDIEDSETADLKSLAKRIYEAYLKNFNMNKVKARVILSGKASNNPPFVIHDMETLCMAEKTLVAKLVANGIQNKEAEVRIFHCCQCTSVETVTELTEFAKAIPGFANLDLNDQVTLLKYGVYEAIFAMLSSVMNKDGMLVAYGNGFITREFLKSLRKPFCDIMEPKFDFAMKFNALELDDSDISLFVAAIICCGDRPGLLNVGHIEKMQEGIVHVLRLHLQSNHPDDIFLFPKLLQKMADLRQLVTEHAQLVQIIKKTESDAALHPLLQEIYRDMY
T1 sequence (Q03181 whole entry): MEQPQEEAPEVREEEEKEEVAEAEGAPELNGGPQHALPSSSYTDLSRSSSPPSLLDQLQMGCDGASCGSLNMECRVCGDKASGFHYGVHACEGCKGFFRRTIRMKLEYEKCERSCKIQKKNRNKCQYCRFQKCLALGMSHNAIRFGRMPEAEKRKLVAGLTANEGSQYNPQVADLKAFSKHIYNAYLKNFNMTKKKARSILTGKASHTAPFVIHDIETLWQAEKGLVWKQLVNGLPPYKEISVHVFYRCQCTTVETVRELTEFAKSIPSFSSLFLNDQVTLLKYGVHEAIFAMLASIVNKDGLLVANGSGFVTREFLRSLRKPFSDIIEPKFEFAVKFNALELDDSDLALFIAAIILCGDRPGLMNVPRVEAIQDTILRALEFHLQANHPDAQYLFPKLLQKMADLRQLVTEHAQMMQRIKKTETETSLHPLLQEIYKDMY
In words: Activation of PPAR (unknown origin) transactivation expressed in human HepG2 cells assessed as increase in transcriptional activity after 20 hrs by PPRE-luciferase reporter gene assay. The data set is classed as cell-based.

Consider `CCOC(C)/C=C/C=C/C(O)CC/C=C/C(=O)NCC(C)(C)O` (centres undefined), for which the result in the data set on PC-12 was Active. Further, the outcome in the data set on HCT-116 was inactive. Further, the Activity entry is “Not Active” in data set [1] and “Non-toxic” in data set [2].

As for `CC(O)/C=C/C=C/C(O)CC/C=C/C(=O)NCC(C)(C)O` (centres undefined), the result with PC-12 was Active. In addition, in data set [3], the inhibition at 2 µg/mL was 41%. Further, the outcome in the data set with HCT-116 was inactive. The values for the Activity result in data set [1] and in data set [2] were “Not Active” and “Non-toxic”, respectively.

Take `C[C@H](O)[C@@H](O)/C=C/C=C/CC/C=C/C(=O)NCC(C)(C)O`: the Activity result in data set [4] is listed as “Non-toxic”; in data set [1], “Not Active”; in data set [2], “Non-toxic”. Moreover, the result in the data set with PC-12 was Active. In addition, the inhibition at 2 µg/mL in data set [3] stood at 56%. In addition, in data set [5], the EC50 was found to be 12 µM. Also, in the data set on HCT-116, the outcome was inactive.

For the compound `CC(O)/C=C/C=C/C(=O)C/C=C/C(=O)NCC(C)(C)O` (centres undefined), in the data set with PC-12, the outcome was Active. In the data set on HCT-116, the result was inactive. Also, the Activity result is “Not Active” in data set [1] and “Non-toxic” in data set [2].

For the compound `CC(O)/C=C/C=C/C(=O)CC/C=C/C(=O)NCC(C)(C)O` (centres undefined), in data set [2], the Activity result was “Non-toxic”.

In the case of `CCOC(/C=C/C=C/C(C)O)CC/C=C/C(=O)NCC(C)(C)O` (centres undefined), in data set [2], the Activity result was “Non-toxic”.

Take `C[C@H](O)[C@H](O)/C=C/C=C\CC/C=C/C(=O)NCC(C)(C)O`: the Activity result in data set [4] is listed as “Non-toxic”; in data set [1], “Not Active”; in data set [2] it was “Non-toxic”. For the same compound, the result in the data set with PC-12 was Active. In data set [3], the inhibition at 2 µg/mL was determined as 31%. Moreover, the outcome in the data set with HCT-116 was inactive.

Turning to `CC(=O)/C=C/C=C/C(O)CC/C=C/C(=O)NCC(C)(C)O` (centres undefined), the outcome in the data set with PC-12 was Active. The inhibition at 2 µg/mL in data set [3] came to 52%. The EC50 in data set [5] was determined as 19.1 µM. For the same compound, the result with HCT-116 was inactive. Moreover, the Activity entry in data set [1] is recorded as “Not Active”; in data set [2] it was “Non-toxic”.
